Results published in patent US10085990B2, “Tricyclic compounds as modulators of TNF-α synthesis and as PDE4 inhibitors” (vTv Therapeutics LLC, priority 2008, dated 2018).
Where a name gives a salt, the structure may show the parent alone.

Tested on: TNF synthesis in human PBMC
Assay: Human PBMC TNF Synthesis Assay
Assay type: cell-based
Conditions: LPS-stimulated human PBMC, overnight incubation, TNF ELISA; read-out: TNF inhib.
Method: Human PBMC TNF Synthesis Assay
Human PBMC were obtained by from a healthy human donor leuko pak. Typically, all donors were pre-screened for STD, HIV and have been given a physical by a physician. One to two ampoules were thawed at 37° C. and then resuspended in 45 to 85 mL of RPMI+10% FBS to a final concentration of 2.5×10^6 cells/mL. Resuspended cells were filtered to remove any large clumps.
Prepare compounds for addition to cells: All compounds were DMSO stocks at 20 mM. Working stock for cell testing were prepared as 4× concentrated material in RPMI+10% FBS. Compounds were added to a polypropylene block and then diluted with the appropriate amount of RPMI+10% FBS. Typically 2.6 μL of 20 mM stock was diluted to 650 μL final volume to yield an 80 μM starting concentration in the stocks. RPMI was added to DMSO stock by pipetting into the tube or block. The compounds were then serial diluted with RPMI+10% FBS. The final DMSO concentrations were not greater than 0.5% in the assay.
Compounds were added to the cells as 4× working stock. 50 μL of compound was prepared above is added to the cells and re-equilibrated in a humidified 5% CO2 incubator at 37° C. for 30 minutes.
A stock of LPS was prepared using RPMI+10% FBS. To prepare the stock, 2.8 μL of LPS (5 mg/mL; Sigma Cat #L3024) was added to 35 mL of media. 50 μL of the LPS in media was added to the cells. Control cultures without LPS received only RPMI+10% FBS. After an overnight incubation at 37° C., the cell culture supernatant was harvested and stored in a polypropylene 96 well plate.
Samples were tested for TNF as per the manufacturer's instructions (TNF ELISA; R&D Systems, Cat #DY210). The samples were serially diluted with PBS+1% BSA to the appropriate dilution condition for the cell prep, typically a 1:4 or 1:6 dilution.

**Q.** With CCn1c(=O)c2cnc3c(OC)cccc3c2n(C2CCCC2)c1=O [Example 1, 1-cyclopentyl-3-ethyl-7-methoxy-1H-pyrimido[5,4-c]quinoline-2,4-dione] as the compound, how does the IC50 read?
**A.** 180 nM

**Q.** Which IC50 does the source give for COc1cccc2c1ncc1c(=O)n(-c3cccc(Cl)c3)c(=O)n([C@@H]3CCNC3)c12 [Example 114, (R)-3-(3-Chloro-phenyl)-7-methoxy-1-pyrrolidin-3-yl-1H-pyrimido[5,4-c]quinoline-2,4-dione.dihydrochloride] here?
**A.** 31 nM

**Q.** For COc1cccc2c1ncc1c(=O)n(-c3cccc(Cl)c3)c(=O)n(C3CCN(C(C)=O)CC3)c12 [Example 90, 1-(1-Acetyl-piperidin-4-yl)-3-(3-chloro-phenyl)-7-methoxy-1H-pyrimido[5,4-c]quinoline-2,4-dione], which IC50 is on record?
**A.** 2 nM

**Q.** How did the IC50 turn out when COc1cccc2c1ncc1c(=O)n(-c3cccc(Cl)c3)c(=O)n([C@H]3CCN(C(=O)OC(C)(C)C)C3)c12 [Example 116, 3-[(S)-3-(3-Chloro-phenyl)-7-methoxy-2,4-dioxo-3,4-dihydro-2H-pyrimido[5,4-c]quinolin-1-yl]-pyrrolidine-1-carboxylic acid tert-butyl ester] was run?
**A.** 2 nM

**Q.** Which IC50 does the source give for COc1cccc2c1ncc1c(=O)n(-c3cccc(Cl)c3)c(=O)n([C@@H]3CCN(C(=O)OC(C)(C)C)C3)c12 [Example 113, 3-[(R)-3-(3-Chloro-phenyl)-7-methoxy-2,4-dioxo-3,4-dihydro-2H-pyrimido[5,4-c]quinolin-1-yl]-pyrrolidine-1-carboxylic acid tert-butyl ester] here?
**A.** 0.3 nM

**Q.** With COc1cccc2c1ncc1c(=O)n(-c3cc(C)cs3)c(=O)n(C3CCCC3)c12 [Example 51, 1-Cyclopentyl-7-methoxy-3-(4-methyl-thiophen-2-yl)-1H-pyrimido[5,4-c]quinoline-2,4-dione] as the compound, how does the IC50 read?
**A.** 30 nM

**Q.** For CCn1c(=O)c2cnc3c(OC)cccc3c2n(CC(C)C)c1=O [Example 18, 3-Ethyl-1-isobutyl-7-methoxy-1H-pyrimido[5,4-c]quinoline-2,4-dione], which IC50 is on record?
**A.** 1100 nM

**Q.** How did the IC50 turn out when COC(=O)N1CCC(n2c(=O)n(-c3cccc(Cl)c3)c(=O)c3cnc4c(OC)cccc4c32)CC1 [Example 124, 4-[3-(3-Chloro-phenyl)-7-methoxy-2,4-dioxo-3,4-dihydro-2H-pyrimido[5,4-c]quinolin-1-yl]-piperidine-1-carboxylic acid methyl ester] was run?
**A.** 50000 nM

**Q.** For COc1cccc2c1ncc1c(=O)n(-c3cccc(Cl)c3)c(=O)n(C3CCC(F)(F)CC3)c12 [Example 87, 3-(3-Chloro-phenyl)-1-(4,4-difluoro-cyclohexyl)-7-methoxy-1H-pyrimido[5,4-c]quinoline-2,4-dione], which IC50 is on record?
**A.** 2 nM

**Q.** For COc1cccc2c1ncc1c(=O)n(-c3cccc(Cl)c3)c(=O)n([C@H]3CCNC3)c12 [Example 117, (S)-3-(3-Chloro-phenyl)-7-methoxy-1-pyrrolidin-3-yl-1H-pyrimido[5,4-c]quinoline-2,4-dione.dihydrochloride], which IC50 is on record?
**A.** 1000 nM

**Q.** Which IC50 does the source give for CCCc1cccc2c1ncc1c(=O)n(CC)c(=O)n(C3CCCC3)c12 [Example 32, 1-Cyclopentyl-3-ethyl-7-propyl-1H-pyrimido[5,4-c]quinoline-2,4-dione] here?
**A.** 2600 nM

**Q.** CCC(C)n1c(=O)c2cnc3c(OC)cccc3c2n(C2CCCC2)c1=O (centres unmarked) [Example 38, 3-sec-Butyl-1-cyclopentyl-7-methoxy-1H-pyrimido[5,4-c]quinoline-2,4-dione] was tested. Which IC50 did it give?
**A.** 450 nM

**Q.** COc1cccc2c1ncc1c(=O)n(-c3ccc4c(c3)OCCO4)c(=O)n(C3CCCC3)c12 [Example 120, 1-Cyclopentyl-3-(2,3-dihydro-benzo[1,4]dioxin-6-yl)-7-methoxy-1H-pyrimido[5,4-c]quinoline-2,4-dione] was tested. Which IC50 did it give?
**A.** 240 nM

**Q.** How did the IC50 turn out when COc1cccc2c1ncc1c(=O)n(-c3ccc(C)cc3)c(=O)n(C3CCCC3)c12 [Example 55, 1-Cyclopentyl-7-methoxy-3-p-tolyl-1H-pyrimido[5,4-c]quinoline-2,4-dione] was run?
**A.** 163 nM
